In patent US7071335B2, “2-pyridinyl-1-piperazine therapeutic agents useful for treating pain” (Euro-Celtique S.A., priority 2002, dated 2006):

Assays:
Format in all cases: cell-based
Human VR1 Receptor [1] = target: T1, Human VR1 Receptor (Homo sapiens, UniProt Q8NER1); assay: Inhibition of pH-induced activation of VR1; settings: mean ± SEM, n = number of experiments
From the text: (§1) Methods for assaying compounds capable of inhibiting VR1 are well known to those skilled in the art, for example, those methods disclosed in U.S. Pat. No. 6,239,267 to Duckworth et al.; U.S. Pat. No. 6,406,908 to McIntyre et al.; or U.S. Pat. No. 6,335,180 to Julius et al.

Human VR1 Receptor [2] = target: T1, Human VR1 Receptor; assay: Inhibition of capsaicin-induced activation of VR1; settings: mean ± SEM, n = number of experiments
From the text: as §1

rat mGluR5 = target: T2, rat mGluR5 (Rattus norvegicus, UniProt P31424); assay: CHO assay: calcium mobilization flux (FLIPR) in CHO-rat mGluR5 cells in the presence of glutamate; settings: at a concentration of 10 μM, 10 uM glutamate
T2 construct: expressed in transfected cells; host or cells: CHO cells (CHO-rat mGluR5, kept under Geneticin selection)
T2 sequence (P31424 21-1203): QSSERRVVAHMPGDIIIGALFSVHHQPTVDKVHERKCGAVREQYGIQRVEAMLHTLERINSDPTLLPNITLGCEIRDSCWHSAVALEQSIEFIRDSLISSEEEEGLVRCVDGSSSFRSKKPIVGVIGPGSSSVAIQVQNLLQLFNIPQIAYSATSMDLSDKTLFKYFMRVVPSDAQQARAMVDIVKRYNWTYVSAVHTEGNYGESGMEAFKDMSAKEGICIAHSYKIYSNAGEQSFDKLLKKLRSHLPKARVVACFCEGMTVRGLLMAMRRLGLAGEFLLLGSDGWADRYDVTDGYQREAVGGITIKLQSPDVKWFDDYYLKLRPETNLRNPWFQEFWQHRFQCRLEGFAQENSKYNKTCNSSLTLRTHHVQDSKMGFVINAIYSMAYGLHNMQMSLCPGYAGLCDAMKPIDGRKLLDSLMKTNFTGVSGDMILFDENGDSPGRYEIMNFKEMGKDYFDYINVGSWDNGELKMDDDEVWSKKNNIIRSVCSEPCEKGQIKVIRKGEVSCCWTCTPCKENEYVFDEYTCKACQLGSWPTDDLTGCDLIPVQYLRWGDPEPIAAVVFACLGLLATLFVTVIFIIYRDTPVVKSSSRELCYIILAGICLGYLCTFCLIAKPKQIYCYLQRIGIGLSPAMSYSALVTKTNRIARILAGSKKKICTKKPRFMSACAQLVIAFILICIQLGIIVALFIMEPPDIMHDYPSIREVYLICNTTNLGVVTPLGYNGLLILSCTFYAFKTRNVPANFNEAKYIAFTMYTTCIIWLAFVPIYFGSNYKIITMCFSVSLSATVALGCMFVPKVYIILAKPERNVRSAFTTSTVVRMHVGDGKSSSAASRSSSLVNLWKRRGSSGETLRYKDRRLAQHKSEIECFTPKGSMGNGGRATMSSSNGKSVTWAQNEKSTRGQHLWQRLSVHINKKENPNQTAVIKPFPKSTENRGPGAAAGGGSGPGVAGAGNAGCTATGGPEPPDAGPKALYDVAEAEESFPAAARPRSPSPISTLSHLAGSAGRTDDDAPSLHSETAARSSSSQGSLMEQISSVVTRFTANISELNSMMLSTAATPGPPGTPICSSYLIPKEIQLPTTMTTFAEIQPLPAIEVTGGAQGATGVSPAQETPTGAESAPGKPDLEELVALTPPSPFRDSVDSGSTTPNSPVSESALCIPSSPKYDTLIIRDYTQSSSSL
Protocol: 40,000 CHO-rat mGluR5 cells/well were plated into 96 well plate (Costar 3409, Black, clear bottom, 96 well, tissue culture treated) for an overnight incubation in Dulbelcco's Modified Eagle's Medium (DMEM, pH 7.4) and supplemented with glutamine, 10% FBS, 1% Pen/Strep, and 500 ug/ml Geneticin. CHO-rat mGluR5 cells were washed and treated with Optimem medium and incubated for 1–4 hours prior to loading cells. […] The plates containing the CHO-rat mGluR5 cells were then transferred to Fluorometric Imaging Plate Reader (FLIPR) (commercially available from Molecular Devices Corporation of Sunnyvale, Calif.) for the assessment of calcium mobilization flux in the presence of glutamate and in the presence or absence of test compounds. After monitoring fluorescence for 15 seconds to establish a base line, DMSO solutions containing various concentrations of the test compound diluted in loading buffer (0.05 mL of 4× dilutions for the competition curves) were added to the cell plate and fluorescence was monitored for 2 minutes. […] Plate fluorescence is then monitored for an additional 60 seconds after agonist addition. […] In each experiment, fluorescence is monitored as a function of time and the data analyzed using Microsoft Excel and GraphPad Prism. […] In each experiment each data point was determined two times.

T1 sequence (Q8NER1 whole entry): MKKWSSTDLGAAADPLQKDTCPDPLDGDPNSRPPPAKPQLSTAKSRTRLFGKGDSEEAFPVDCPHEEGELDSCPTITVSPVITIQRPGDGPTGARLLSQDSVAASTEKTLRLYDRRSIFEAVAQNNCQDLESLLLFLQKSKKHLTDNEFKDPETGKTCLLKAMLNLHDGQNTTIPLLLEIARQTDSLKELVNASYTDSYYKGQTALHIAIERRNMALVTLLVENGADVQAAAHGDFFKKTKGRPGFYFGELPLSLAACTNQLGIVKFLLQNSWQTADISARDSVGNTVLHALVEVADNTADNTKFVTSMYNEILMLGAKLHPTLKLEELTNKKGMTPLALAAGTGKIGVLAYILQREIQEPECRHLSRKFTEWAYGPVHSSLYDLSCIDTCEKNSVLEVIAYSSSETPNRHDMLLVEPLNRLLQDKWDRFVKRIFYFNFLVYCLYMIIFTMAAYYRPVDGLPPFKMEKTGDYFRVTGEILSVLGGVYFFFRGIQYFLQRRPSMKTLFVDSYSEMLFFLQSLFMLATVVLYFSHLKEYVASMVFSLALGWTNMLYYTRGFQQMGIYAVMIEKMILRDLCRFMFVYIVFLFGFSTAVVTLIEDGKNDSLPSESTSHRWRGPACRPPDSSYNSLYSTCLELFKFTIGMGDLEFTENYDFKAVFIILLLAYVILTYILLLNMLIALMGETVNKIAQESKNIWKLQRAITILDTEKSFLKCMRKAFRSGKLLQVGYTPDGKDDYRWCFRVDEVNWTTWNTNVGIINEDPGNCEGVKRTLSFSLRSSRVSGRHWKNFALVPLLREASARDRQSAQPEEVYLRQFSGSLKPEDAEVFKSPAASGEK

IC50 (Human VR1 Receptor [1]) | IC50 (Human VR1 Receptor [2]) | inhibition of mGluR5 (rat mGluR5) | SMILES
5.4 ± 2.5 nM | 1.3 ± 1.2 nM | – | CC(C)(C)c1ccc(NC(=O)N2CCN(c3ncccc3F)CC2)cc1
– | – | inhibits | Cc1cccc(CCNC(=O)N2CCN(c3ncccc3Cl)C[C@H]2C)c1C
